One experiment has as its system Proteus vulgaris. The experiment can be described thus: Antimicrobial activity against Proteus vulgaris ATCC 6897 assessed as growth inhibition by agar dilution-streak method. Format: functional.
A further experiment relates to Escherichia coli. The experiment can be described thus: Antimicrobial activity against Escherichia coli ATCC 26 assessed as growth inhibition by agar dilution-streak method. Format: functional.
A further experiment concerns Serratia marcescens. The experiment can be described thus: Antimicrobial activity against Serratia marcescens ATCC 4003 assessed as growth inhibition by agar dilution-streak method. Format: functional.
Another experiment deals with Salmonella typhi. Kind of experiment: Antimicrobial activity against Salmonella typhi ATCC 9992 assessed as growth inhibition by agar dilution-streak method. Format: functional, Salmonella enterica subsp. enterica serovar Typhi. Conditions: Salmonella enterica.
The next experiment concerns Enterococcus faecalis. Kind of experiment: Antimicrobial activity against Streptococcus faecalis ATCC 8043 assessed as growth inhibition by agar dilution-streak method. Format: functional.
The subject of the next experiment is Shigella sonnei. The experiment can be described thus: Antimicrobial activity against Shigella sonnei ATCC 9290 assessed as growth inhibition by agar dilution-streak method. The experiment is classed as functional.
The next experiment concerns Klebsiella pneumoniae. The experiment can be described thus: Antimicrobial activity against Klebsiella pneumoniae ATCC 8045 assessed as growth inhibition by agar dilution-streak method. Format: functional.
Another experiment relates to Proteus mirabilis. Kind of experiment: Antimicrobial activity against Proteus mirabilis Finland 9 assessed as growth inhibition by agar dilution-streak method. The experiment is classed as functional.
The next experiment deals with Acinetobacter sp. Kind of experiment: Antimicrobial activity against Acinetobacter sp. 2347 assessed as growth inhibition by agar dilution-streak method. The experiment is classed as functional.
The next experiment relates to Pseudomonas aeruginosa. The experiment can be described thus: Antimicrobial activity against Pseudomonas aeruginosa BMH 1 assessed as growth inhibition by agar dilution-streak method. The experiment is classed as functional.
In another experiment the test system is Staphylococcus aureus. The experiment can be described thus: Antimicrobial activity against Staphylococcus aureus ATCC 6538P assessed as growth inhibition by agar dilution-streak method. The experiment is classed as functional.

These results are taken from ChEMBL document CHEMBL3244355, “Quinolone antimicrobial agents. 2. Methylenedioxy positional isomers of oxolinic acid” (1979).

SMILES strings stand for the structures. ≈ marks a conversion by molar mass, not a printed value.

In the case of `CCn1cc(C(=O)O)c(=O)c2cc3c(cc21)OCO3` [OXOLINIC ACID], the minimum inhibitory concentration (MIC) with Proteus vulgaris was over 0.05 µg/mL; in the experiment with Escherichia coli, 0.1 µg/mL (≈ 0.383 µM); with Serratia marcescens it was 0.1 µg/mL (≈ 0.383 µM); with Salmonella typhi, 0.2 µg/mL (≈ 0.766 µM); in the experiment on Enterococcus faecalis, 25 µg/mL (≈ 95.7 µM); in the experiment on Shigella sonnei, 0.2 µg/mL (≈ 0.766 µM). For the same compound, the MIC with Klebsiella pneumoniae is over 0.05 µg/mL; with Proteus mirabilis, 0.78 µg/mL (≈ 2.99 µM); in the experiment on Acinetobacter sp., 0.4 µg/mL (≈ 1.53 µM); in the experiment with Pseudomonas aeruginosa it was 12.5 µg/mL (≈ 47.9 µM); in the experiment with Staphylococcus aureus it was 0.78 µg/mL (≈ 2.99 µM).

As for `CCn1cc(C(=O)O)c(=O)c2ccc3c(c21)OCO3`, the minimal inhibitory concentration (MIC) in the experiment on Proteus vulgaris was 3.13 µg/mL (≈ 12 µM); with Escherichia coli, 6.25 µg/mL (≈ 23.9 µM); in the experiment with Serratia marcescens, 3.13 µg/mL (≈ 12 µM); with Salmonella typhi it was 12.5 µg/mL (≈ 47.9 µM); in the experiment on Enterococcus faecalis, over 100 µg/mL; in the experiment on Shigella sonnei it was 3.13 µg/mL (≈ 12 µM). Further, the minimum inhibitory concentration (MIC) is 1.56 µg/mL (≈ 5.97 µM) with Klebsiella pneumoniae; 50 µg/mL (≈ 191 µM) in the experiment on Proteus mirabilis; 6.25 µg/mL (≈ 23.9 µM) with Acinetobacter sp.; over 100 µg/mL with Pseudomonas aeruginosa; 25 µg/mL (≈ 95.7 µM) with Staphylococcus aureus.

`CCn1cc(C(=O)O)c(=O)c2c3c(ccc21)OCO3`: the MIC was 100 µg/mL (≈ 383 µM) in the experiment on Proteus vulgaris; over 100 µg/mL in the experiment on Escherichia coli; over 100 µg/mL in the experiment on Serratia marcescens; over 100 µg/mL in the experiment with Salmonella typhi; over 100 µg/mL in the experiment on Enterococcus faecalis; over 100 µg/mL in the experiment with Shigella sonnei. For the same compound, the MIC with Klebsiella pneumoniae is 25 µg/mL (≈ 95.7 µM); with Proteus mirabilis, over 100 µg/mL; in the experiment with Acinetobacter sp. it was over 100 µg/mL; in the experiment on Pseudomonas aeruginosa, over 100 µg/mL; in the experiment with Staphylococcus aureus it was over 100 µg/mL.
